Reference: patent publication US20100234381A1, “BIOMARKERS AND METHODS FOR DETERMINING SENSITIVITY TO VASCULAR ENDOTHELIAL GROWTH FACTOR RECEPTOR-2 MODULATORS” (Bristol-Myers Squibb Company, priority 2007, published 2010)
pIC50: −log10 of the molar value.

What was measured:
[1] = test system: FGF2-stimulated cancer cell lines; assay: FGF2-stimulated tumor cell proliferation, panel of cancer cell lines; type: cell-based; conditions: panel of 16 cell lines; FGF2 2.5 ng/ml; read-out: IC50, FGF2-induced tumor cell proliferation in vitro
Protocol: […], GEO, L2987, 786-0, A549, A498, Du145, PANC-1, ACHN, HT1197, CALU6, SKOV3, 769-[…], HCT166 and UMUC3. […] Gene expression profiling was performed on RNA samples from tumor cell lines using AFFYMETRIX® GeneChip System.

[2] = test system: A2780 ovarian cancer cells; assay: FGF2-induced proliferation of A2780 ovarian cancer cells (modified MTS assay); type: cell-based; conditions: A2780 ovarian cancer cells
Protocol: (§1) Cell proliferation was determined by a modified MTS assay with […] 96® Aqueous One Solution Reagent (Promega, Madison, Wis.). A2780 ovarian cancer cells, MIAPAC-2 pancreatic cancer cells, or GEO colon cancer cells were seeded on 96-well flat-bottomed tissue culture plates (Becton Dickinson, San Jose, Calif.) at a concentration of 3×10^3 cells/well in RPMI 1640 with 1% fetal bovine serum at 37° C. in 5% carbon dioxide/95% air in the presence of 100 units/ml penicillin, 100 μg/ml streptomycin and allowed to adhere to the plate overnight. Then the cells were incubated in the presence of each concentration of 0 (control), 0.3, 0.6, 1.25, 2.5, 5, 10 ng/ml of FGF2 or VEGF for another 72 hours at 37° C. in a humidified atmosphere of 5% CO2 in air. After treatment, 20 μl of […] 96® Aqueous One Solution Reagent was dropped into each well of plates. After 180 minutes incubation, the optical densities (OD) of these samples were directly measured using SPECTRAMAX® plus (Molecular Device, California) and reference wavelength of 490 nm. The OD of control samples was regarded as 100. Each condition was performed with 4 wells and experiment was repeated twice.

[3] = test system: MIAPAC-2 pancreatic cancer cells; assay: FGF2-induced proliferation of MIAPAC-2 pancreatic cancer cells (modified MTS assay); type: cell-based; conditions: MIAPAC-2 pancreatic cancer cells
Protocol: as §1

[4] = test system: ovarian cancer cell line A2870; assay: VEGF-induced proliferation of ovarian cancer cell line A2870; type: cell-based; conditions: data not shown
Protocol: as §1

[5] = test system: pancreatic cancer cell line MIAPAC-2; assay: VEGF-induced proliferation of pancreatic cancer cell line MIAPAC-2; type: cell-based; conditions: data not shown
Protocol: as §1

[6] = test system: FGF2 growth factor gene expression; assay: FGF2 gene expression, AFFYMETRIX human arrays
VEGF gene expression = assay: VEGF gene expression, AFFYMETRIX human arrays

Row | Molecule | pIC50 [1] | effect on FGF2-induced cellular proliferation [2] | effect on FGF2-induced cellular proliferation [3] | effect on VEGF-induced cellular proliferation [4] | effect on VEGF-induced cellular proliferation [5] | modulation of FGF2 growth factor gene expression levels [6] | modulation of VEGF gene expression levels (VEGF gene expression)
1 | CCN(CC)CCNC(=O)c1c(C)[nH]c(/C=C2\C(=O)Nc3ccc(F)cc32)c1C [sunitinib, reference compound] | ~5.00 | – | – | – | – | – | –
2 | bevacizumab [reference compound] | – | did not show significant sensitivity | did not show significant sensitivity | did not show significant sensitivity | did not show significant sensitivity | did not | modulated VEGF gene expression levels
